# Key:
# Assay type in all cases: cell-based
# [1] = test system: NCI-H1395; test: Lung cancer cell line panel screened for sensitivity to BPTES, 72 hr proliferation assay
# Excerpt: (§1) Of these, 44 of the cell lines have been classified as non-small cell lung cancer (NSCLC). […] Four of the top 25 transcriptional/cellular pathways were related to the epithelial-mesenchymal transition (EMT) (ranks 1, 15, 23, 25 of FIG. 2). […] Low E-cadherin/high vimentin are well-defined markers of cells that have a mesenchymal phenotype as characterized for example, in any one of the following references: (Yauch et al., (2005) Cin Cancer Res 11:24; Savagner et al., (2010) Ann Oncol. 21(suppl 7): vii89; Thiery et al., (2002) Nature Reviews Cancer June vol 2:442).
# [2] = test system: H2228; test: as above
# Excerpt: as §1
# [3] = test system: DMS-53; test: as above; settings: DMS-53 cell line
# Excerpt: as §1
# [4] = test system: NCI-H1048; test: as above
# Excerpt: as §1
# [5] = test system: NCI-H1355; test: as above
# Excerpt: as §1
# [6] = test system: NCI-H524; test: as above
# Excerpt: as §1
# [7] = test system: NCI-H460; test: as above
# Excerpt: as §1
# [8] = test system: NCI-H2081; test: as above
# Excerpt: as §1
# [9] = test system: NCI-H1581; test: as above
# Excerpt: as §1
# [10] = test system: SW-1573; test: as above
# Excerpt: as §1
# [11] = test system: NCI-H1436; test: as above
# Excerpt: as §1
# [12] = test system: NCI-H23; test: as above
# Excerpt: as §1
# [13] = test system: A427; test: as above
# Excerpt: as §1
# [14] = test system: NCI-H838; test: as above
# Excerpt: as §1
# [15] = test system: NCI-H596; test: as above
# Excerpt: as §1
# [16] = test system: NCI-H2405; test: as above
# Excerpt: as §1
# [17] = test system: NCI-H1563; test: as above
# Excerpt: as §1
# [18] = test system: NCI-H2170; test: as above
# Excerpt: as §1
# [19] = test system: NCI-H1155; test: as above
# Excerpt: as §1
# [20] = test system: NCI-H774; test: as above
# Excerpt: as §1
# [21] = test system: NCI-H82; test: as above
# Excerpt: as §1
# [22] = test system: NCI-H1623; test: as above
# Excerpt: as §1
# [23] = test system: NCI-H1573; test: as above
# Excerpt: as §1
# [24] = test system: NCI-H520; test: as above
# Excerpt: as §1
# [25] = test system: SW900; test: as above
# Excerpt: as §1
# [26] = test system: NCI-H2009; test: as above
# Excerpt: as §1
# [27] = test system: NCI-H446; test: as above
# Excerpt: as §1
# [28] = test system: NCI-H1703; test: as above
# [29] = test system: panel of 62 lung cancer cell lines; test: Lung cancer cell line panel screened for sensitivity to BPTES, whole panel
# Excerpt: as §1
# [30] = test system: LXF-289; test: Lung cancer cell line panel screened for sensitivity to BPTES, 72 hr proliferation assay
smiles,measurement,setting,value
O=C(Cc1ccccc1)Nc1nnc(CCSCCc2nnc(NC(=O)Cc3ccccc3)s2)s1 [BPTES],Max Inh @ 10 uM (%),"[1]; NCI-H1395, 10 uM",16%
same,Mu/max @10 uM,"[1]; NCI-H1395, 10 uM",0.61
same,μ/μmax @10 uM,"[1]; NCI-H1395, 10 uM",0.61
same,μ/μmax,[1]; NCI-H1395 cell line,0.61
same,μ/μmax,[2],0.69
same,μ/μmax,[3],0.93
same,μ/μmax,[4],0.94
same,μ/μmax,[5],0.78
same,μ/μmax,[6],0.53
same,Max Inh @ 10 uM (%),"[7]; NCI-H460, 10 uM",18%
same,Mu/max @10 uM,"[7]; NCI-H460, 10 uM",0.92
same,μ/μmax @10 uM,"[7]; NCI-H460, 10 uM",0.92
same,μ/μmax,[7]; NCI-H460 cell line,0.92
same,μ/μmax,[8],1.00
same,μ/μmax,[9],0.51
same,Max Inh @ 10 uM (%),"[10]; SW-1573, 10 uM",68%
same,Mu/max @10 uM,"[10]; SW-1573, 10 uM",0.12
same,μ/μmax @10 uM,"[10]; SW-1573, 10 uM",0.12
same,μ/μmax,[10]; SW-1573 cell line,0.12
same,μ/μmax,[11],0.68
same,Max Inh @ 10 uM (%),"[12]; NCI-H23, 10 uM",45%
same,Mu/max @10 uM,"[12]; NCI-H23, 10 uM",0.60
same,μ/μmax @10 uM,"[12]; NCI-H23, 10 uM",0.60
same,μ/μmax,[12]; NCI-H23 cell line,0.60
same,Max Inh @ 10 uM (%),"[13]; A427, 10 uM",86%
same,Mu/max @10 uM,"[13]; A427, 10 uM",−0.49
same,μ/μmax @10 uM,"[13]; A427, 10 uM",−0.49
same,μ/μmax,[13]; A427 cell line,−0.49
same,sensitivity to BPTES,[14]; NCI-H838,moderate level of sensitivity
same,Max Inh @ 10 uM (%),"[14]; NCI-H838, 10 uM",37%
same,Mu/max @10 uM,"[14]; NCI-H838, 10 uM",0.66
same,μ/μmax @10 uM,"[14]; NCI-H838, 10 uM",0.66
same,μ/μmax,[14]; NCI-H838 cell line,0.66
same,Max Inh @ 10 uM (%),"[15]; NCI-H596, 10 uM",13%
same,Mu/max @10 uM,"[15]; NCI-H596, 10 uM",0.84
same,μ/μmax @10 uM,"[15]; NCI-H596, 10 uM",0.84
same,μ/μmax,[15]; NCI-H596 cell line,0.84
same,μ/μmax,[16],0.92
same,Max Inh @ 10 uM (%),"[17]; NCI-H1563, 10 uM",8%
same,Mu/max @10 uM,"[17]; NCI-H1563, 10 uM",0.92
same,μ/μmax @10 uM,"[17]; NCI-H1563, 10 uM",0.92
same,μ/μmax,[17]; NCI-H1563 cell line,0.92
same,μ/μmax,[18],0.82
same,μ/μmax,[19],0.93
same,μ/μmax,[20],0.54
same,μ/μmax,[21],0.90
same,μ/μmax,[22],0.79
same,μ/μmax,[23],0.92
same,Max Inh @ 10 uM (%),"[24]; NCI-H520, 10 uM",14%
same,Mu/max @10 uM,"[24]; NCI-H520, 10 uM",0.79
same,μ/μmax @10 uM,"[24]; NCI-H520, 10 uM",0.79
same,μ/μmax,[24]; NCI-H520 cell line,0.79
same,μ/μmax,[25],0.70
same,μ/μmax,[26],0.96
same,μ/μmax,[27],0.84
same,Max Inh @ 10 uM (%),"[28]; NCI-H1703, 10 uM",87%
same,Mu/max @10 uM,"[28]; NCI-H1703, 10 uM",0.30
same,μ/μmax @10 uM,"[28]; NCI-H1703, 10 uM",0.30
same,μ/μmax,[28]; NCI-H1703 cell line,0.30
same,share of the 62 lines with significant sensitivity to BPTES (μ/μmax<0.6),[29],Approximately 30%
same,Max Inh @ 10 uM (%),"[30]; LXF-289, 10 uM",91%
same,Mu/max @10 uM,"[30]; LXF-289, 10 uM",−0.25
same,μ/μmax @10 uM,"[30]; LXF-289, 10 uM",−0.25
same,μ/μmax,[30]; LXF-289 cell line,−0.25

# From patent US10101331B2, “Methods of evaluating patients using E-cadherin or vimentin” (AGIOS PHARMACEUTICALS, INC, priority 2012, dated 2018)
